# Measurements: patent publication EP1094711B1, “METHODS FOR ERADICATION OF NANOBACTERIA” (Nanobac Oy, priority 1998, dated 2000)
# Structures can show the parent of a compound that is named as a salt.
# What was measured:
# [1] = tested on: nanobacteria; conditions: Kajander et al. 1997; cited from earlier work
# [2] = tested on: nanobacteria; assay: Antibiotic sensitivity test by Minimal Inhibition Concentration (MIC), 96-well plates, absorbance at 650 nm; type: cell-based; conditions: for antinanobacterial effect in the in vitro test (in words): in vitro MIC test; for MIC 50: 50% inhibition; for MIC 50 / MIC 90: DMEM with 10% gamma-irradiated FBS
# Protocol: Antibiotic sensitivity tests were carried out by measuring Minimal Inhibition Concentration (MIC), a common practice in clinical microbiology.
# The tests were performed in 96-well plates. DMEM (commercial cell culture medium) containing 10% gamma-irradiated fetal bovine serum (FBS)(dose about 3 Mrads; this treatment inactivates nanobacteria in the serum so that the basic medium is sterile) was used as the basic culture medium. These components are commercially available, e.g., from Gibco. The antibiotic stock solutions were sterile filtered through 0.2 micrometer filters. The stock solutions were then serially diluted (into the basal culture medium) to provide a final starting concentration of 0.5 mg/ml and 1:2 dilutions therefrom, unless otherwise specified. For each antibiotic three parallel tests were performed using all the antibiotic dilutions and, additionally, positive and negative control experiments. […] 100 µl of dilutions of the nanobacteria inoculum were added to all wells except the negative controls. The plates were incubated at mammalian cell culture conditions (37° Celsius, 5% carbon dioxide, 95% humid air). The absorbance values at 650 nm were recorded by using an ELISA reader at the start, and at 4, 8, 12, 14 days. […] Calculations were based on absorbance curves where absorbance was plotted against concentration of the antibiotic.
# [3] = tested on: nanobacteria; assay: Treatment of human patients infected with nanobacteria; conditions: person with chronic fatigue syndrome; 500 mg 4 times per day for one month; after one month therapy
# [4] = tested on: nanobacteria; assay: Antibiotic sensitivity test by Minimal Inhibition Concentration (MIC), 96-well plates, absorbance at 650 nm; type: cell-based; conditions: culture medium, 37° Celsius
# [5] = tested on: serum nanobacteria; assay: Antibiotic sensitivity test of serum nanobacteria with cell culture antibiotics; type: cell-based; conditions: 100 µg/ml, one month, medium containing 10% fetal bovine serum
# Protocol: Nanobacteria were cultured with 10% fetal bovine serum in DMEM medium (serum nanobacteria) for one month at 37°C in an atmosphere of 5% CO2 - 95% air. The cultures were harvested by centrifugation. For the autoclaving, UV, microwave, heating and drying treatments, the harvested nanobacteria were suspended in phosphate buffered saline (pH 7.4; PBS). After treatments, subculturing of the nanobacteria was made in 10% gamma irradiated fetal bovine serum in DMEM medium. The growth of serum nanobacteria was followed by light microscopy and absorbance measurement with a spectrophotometer at 650 nm.
# The 1× concentrations are those recommended for cell culture. […]
# [6] = tested on: SF-nanobacteria; assay: Chemical disinfection of SF-nanobacteria; type: cell-based; design: key to Resistance of SF-nanobacteria to chemical disinfectants (survival) / partial or total detachment on exposure: +++: No effect; ++: Reduced survival; +: Markedly reduced survival; - : No survival; * = partial or total detachment on exposure; conditions: room temperature, survival after subculture compared to diluent only
# From the text: The cultures were exposed to the disinfectants after removal of the culture medium. For the autoclaving, UV, microwave, and drying treatments, the medium was removed and an equal amount of PBS used instead. For the heat treatments, the SF-nanobacteria were harvested by scraping the culture vessel followed by centrifugation of the medium. The obtained pellet was suspended in PBS and used in the test. After treatments the SF-nanobacteria were subcultured in DMEM medium and the growth followed by light microscopy to see the adherence and typical mineralization.
# The concentrations of the chemicals used were those commonly used for disinfection or as instructed by the manufacturer. The chemicals included 70% ethanol, 2% glutaraldehyde, 4% formaldehyde, 0.5% hypochlorite, 3% hydrogen peroxide, 1M hydrochloric acid (HCl), 1M sodium hydroxide (NaOH) , 1% sodium dodecyl sulfate (SDS), 1% Tween 80, 1 % Triton X-100, 3M guanidium-hydrochloride, 3M urea, 1% Virkon® (Antec International Ltd., Suffolk, England; 100% product contains 50% potassium persulfate, 5% sulfaminoic acid), 1.5% Erifenol® (Orion OY, Finland; 100% product contains <5% NaOH, <5% o-benzyl-p-chlorophenol, 5-15% p-chloro-m-cresol), 1% Klorilli® (Orion OY, Finland; 100% product contains sodium metasilicate, sodium N-chloro-p-toluenesulfonamide-3-hydrate and 20,000 ppm active chlorine), and 3% Buraton® (Schülke & Mayr, Germany; 100% product contains 4.5% formaldehyde, 6.8% glyoxal, 1.5% glyoxylic acid, 6% dimethylaurylbenzyl-ammonium chloride). The dilutions to be used were freshly prepared on the day of exposure in sterile distilled water. As a positive control, only diluent was used. Negative control contained only culture medium.
# The SF-nanobacteria were exposed to the chemicals for 10 and 30 minutes at room temperature after removal of the culture medium. After exposure, the disinfectant solution was removed and fresh medium added (with a neutralization step in the case of HCl and NaOH). If any significant deattachment occurred, nanobacteria were recovered by centrifugation, and subcultured. The exposed serum-free cultures were passaged 1:10 after 48 hours and the growth was followed by light microscopy for three weeks.
# [7] = tested on: nanobacteria; assay: Nanobacterial growth and biofilm formation on stents with metal ions in the culture medium; type: cell-based; conditions: salts added to the culture medium
# From the text: Nanobacteria also absorb some heavy metals. Nanobacteria can be stained well with silver or copper compounds. […] Silver and copper parts or platings on surfaces, such as catheters or stents, can provide an antinanobacterial effect by preventing nanobacterial biofilm formation. In in vitro tests nanobacteria avidly formed biofilm on two different commercial stents made of a plastic type of material. This biofilm formation was prevented by the addition of silver or copper salts to the culture medium.
# [8] = 90% inhibition, 12 day time point
compound,measurement,setting,value
"O=C(O)CN(CCN(CC(=O)O)CC(=O)O)CC(=O)O [EDTA, ethylenediaminetetraacetic acid]",effect on growth of nanobacteria,[1],inhibts growth
same,IC90,"[2]; 288 h, 90% inhibition, 12 day time point, read-out: MIC 90",2500 µM
same,IC50,"[2]; 288 h, read-out: MIC 50",300 µM
same,antinanobacterial effect in the in vitro test (in words),[2],antinanobacterial effects
CN(C)[C@@H]1C(O)=C(C(N)=O)C(=O)[C@@]2(O)C(O)=C3C(=O)c4c(O)cccc4[C@@](C)(O)[C@H]3C[C@@H]12 [tetracycline HCl],nanobacteria status of the patient (urine and serum samples),[3],nanobacteria negative
Doxycycline,stability under the test conditions,[4],not stable
same,MIC 50,[2]; 12 day time point,50 µg/mL
same,MIC 90,[2]; [8],80 µg/mL
same,antinanobacterial effect in the in vitro test (in words),[2],effective on inhibiting nanobacterial growth
Gentamycin,morphology of nanobacteria in SEM,[5],changes in the morphology
same,MIC 50,[2]; 12 day time point,60 µg/mL
same,MIC 90,[2]; [8],250 µg/mL
same,antinanobacterial effect in the in vitro test (in words),[2],bacteriostatic effects at high antibiotic concentrations
"CCCCCCCCCCCCOS(=O)(=O)[O-].[Na+] [1 % SDS, sodium dodecyl sulfate]",Resistance of SF-nanobacteria to chemical disinfectants (survival),[6]; Exposure time 10 min,+++
same,Resistance of SF-nanobacteria to chemical disinfectants (survival),[6]; Exposure time 30 min,+++
silver,biofilm formation on commercial stents,[7],prevented
Triton X-100 [1 % Triton X-100],Resistance of SF-nanobacteria to chemical disinfectants (survival),[6]; Exposure time 10 min,+++
same,Resistance of SF-nanobacteria to chemical disinfectants (survival),[6]; Exposure time 30 min,+++
"[Na+].[OH-] [1M NaOH, sodium hydroxide]",Resistance of SF-nanobacteria to chemical disinfectants (survival),[6]; Exposure time 10 min,+++
same,Resistance of SF-nanobacteria to chemical disinfectants (survival),[6]; Exposure time 30 min,+++
[Cu] [copper],biofilm formation on commercial stents,[7],prevented
